This is an account of results in patent US9833430B2, “Neurodegenerative disorders and methods of treatment and diagnosis thereof” (The University of Queensland, priority 2013, dated 2017).

Structures are written as SMILES. “Also recorded” adds a separate entry of the source.

What all share (format): in vivo
The test system of assay [1] is hSOD1^G93A mice. Put plainly: Hind limb grip strength test in hSOD1^G93A mice on triheptanoin diet. How it is done:
(§1) All experiments were approved by the University of Queensland's Animal Ethics Committee and followed the guidelines of the Queensland Animal Care and Protection Act 2001. All efforts were made to minimize the suffering and the number of animals used. Wild-type and hSOD1^G93A mice (B6.Cg-Tg(SOD1*G93A)1 Gur/J, stock no. 004435, Jackson laboratory, Maine, USA), were generated by mating hSOD1^G93A males with C57B/L6 wild-type females (University of Queensland). Mice were housed in a 12 hour light, 12 hour dark cycle, and had free access to food and water. Experimenters were blinded to animal genotype (until the mice started expressing the ALS phenotype) and dietary interventions.
(§2) Immediately after weaning, mice were placed on either a standard diet (SF11-027, Specialty Feeds, WA, AUS) or a matched diet (SF11-028, Specialty Feeds) in which 35% of the calories were from triheptanoin oil (Sasol, Germany). All diets were matched in protein, mineral, antioxidant and vitamin content relative to their caloric densities (Thomas et al., 2012). Triheptanoin replaced sucrose, some of the complex carbohydrates and long chain fats in the diet.
Animals underwent behavioral testing approximately 3-4 hours into the light cycle. All behavioral testing was conducted in an environment with minimal stimuli so as to minimize any possible effects caused by changes in external stimuli. Animals were weighed before every test session. Mice were observed, and disease progression tracked and graded according to a neurological score sheet to ensure that any non-ALS related deaths were excluded from the study. The neurological score was adapted from criteria developed at the ALS therapy development institute (Gill et al., 2009). In accordance with ethical requirements, hSOD1^G93A mice that became too weak to reach the food hoppers were provided with wet chow on the floor of the cages. The endpoint of the study was defined as the mouse being unable to right itself within 15 seconds after being placed on its back. Upon reaching end-stage or 25 weeks of age, transgenic mice and their respective wild-type littermates were euthanized with an overdose of pentobarbital (120 mg/kg, i.p., Provet, Australia). Tissues, including the m. gastrocnemius and tail, were collected for subsequent analysis. […]
(§3) Hind limb grip strength tests were conducted twice a week using a T-bar force transducer (Ugo Basile, Italy). […] The reading on the force transducer was taken only if both hind limbs released the bar at the same time. The average of 10 trials per mouse was recorded each training session. To compare time points of grip strength loss, the time point where a loss of more than 30% of the combined mean grip strength of week 9 to 13 was recorded, if the subsequent 3 measurements were ≦70% of the original average strength.

The test system of another assay is wild-type mice. Put plainly: Hind limb grip strength test in wild-type mice on triheptanoin diet. As to conditions: triheptanoin n=15 vs control n=12. How it is done:
as §1, with “interventions. […]” for “interventions.”
as §3

Assay [2] deals with hSOD1^G93A mice. Briefly: Rotarod test, onset of balance loss.
Excerpt: as §2
(§4) Animals underwent behavioral testing approximately 3-4 hours into the light cycle. All behavioral testing was conducted in an environment with minimal stimuli so as to minimize any possible effects caused by changes in external stimuli. Animals were weighed before every test session. Mice were observed, and disease progression tracked and graded according to a neurological score sheet to ensure that any non-ALS related deaths were excluded from the study. The neurological score was adapted from criteria developed at the ALS therapy development institute (Gill et al., 2009). In accordance with ethical requirements, hSOD1^G93A mice that became too weak to reach the food hoppers were provided with wet chow on the floor of the cages. […]
The rotarod tests were conducted with 10 repeats once a week using a rotarod designed for mice (Ugo Basile, Italy). […] The time at which the animal fell off was recorded. […]
A general note: Falling from the rotarod earlier than controls is read as motor impairment.

The subject of assay [3] is hSOD1^G93A mice. Briefly: Body weight and onset of body weight loss in hSOD1^G93A mice.
Excerpt: as §2
as §4, with “cages. The endpoint of the study was defined as the mouse being unable to right itself within 15 seconds after being placed on its back.” for “cages.”

In assay [4] the test system is hSOD1^G93A mice. Put plainly: Survival, days taken to reach end-stage.
Excerpt: as §2
as §4, with “cages. The endpoint of the study was defined as the mouse being unable to right itself within 15 seconds after being placed on its back.” for “cages.”

The test system of assay [5] is hSOD1^G93A mice. Briefly: Motor neuron counting (stereological, L2 to L5). The note with it: hSOD1^G93A mice at 70 days. How it is done: Mice were fed with control or triheptanoin diet from 35 days until 70 days of age, when mice were anesthetized with pentobarbital (100 mg/kg i.p.), perfused with 0.9% saline followed by 4% paraformaldehyde. Spinal cords were removed and further fixed in 4% paraformaldehyde and subsequently embedded in OCT compound and serial sections of 16 μm were cut from lumbar vertebrae. Sections were washed in cold PBS and stained with 0.1% thionin in acetate buffer (pH3.4). The motor neurons were counted using stereological method as previously described (Banks et al., 2001; 2003; Forgarty et al., 2013). Briefly, motor neurons in the lateral motor column (LMC) from one side of the spinal cord were counted and only neurons that are large in size with darkly stained cytoplasm, pale nucleus and darkly stained nucleoli were counted (Clarke and Oppenheim, 1995). Every 10th section from lumbar 2 to lumbar 5 regions was counted to get the total motor neuron count which was then divided by the number of sections counted and multiplied by the total number of sections containing the LMC.

The test system of assay [6] is Pdha1, Ogdh, Sdha and Mut mRNA in gastrocnemius muscle of hSOD1^G93A mice. Put plainly: Quantitative real time PCR of metabolic genes in gastrocnemius muscle. As to conditions: 10 week old hSOD1^G93A mice, triheptanoin feeding. From the text:
After euthanasia, the gastrocnemius muscle was quickly removed and frozen in liquid nitrogen. To extract RNA, muscle samples were pulverized in liquid nitrogen with a cold mortar and pestle, dissolved with TRI reagent (Life Technologies, CA, USA) and extracted according to the manufacturer's instructions. Contaminating DNA was removed by DNase I treatment and cDNA was synthesized using the Tetro cDNA synthesis kit (Bioline, London, UK) according to the manufacturer's instructions.
Expression of several metabolic genes was assayed (Gapdh, Pdha1, Ogdh, Sdha, Pcx, Gpt1, Gpt2, Pcca, Pccb and Mut) by quantitative real time PCR. All primers pairs (Table 1) were evaluated for efficiency using a 4 fold serial dilution series of muscle cDNA. The derived slope of each primer pair was used to calculate the efficiency by applying the formula, […]. Reactions consisted with diluted cDNA, 5 μl of SYBR Green Mastermix and 8 μM of forward and reverse primers each, and were amplified after an initial hot start. Conditions for cycling and the melt curve were identical to those described for quantitative genotyping. Samples without reverse transcriptase treatment were assayed to ensure that samples were free from DNA contamination. The fold expression (ΔCT) of the gene of interest (goi) relative to the geometric mean of housekeeping genes (Tbp, B2m and Hmbs) were calculated with a formula adapted from (Vandesompele et al., 2002) taking into consideration the individual efficiencies (E) of each primer pair.
(In general: Real-time PCR tracks product formation cycle by cycle.)

`CCCCCCC(=O)OCC(COC(=O)CCCCCC)OC(=O)CCCCCC` [triheptanoin, 1,3-di(heptanoyloxy)propan-2-yl heptanoate]: in the assay with hSOD1^G93A mice [1] (hSOD1^G93A mice on both diets), the “hind limb grip strength (upper limit over time)” value is recorded as not above 400 mN. For the same compound, the “onset of hind limb grip strength loss delayed by” value in the assay on hSOD1^G93A mice [1] (high copy number (19-24) hSOD1^G93A mice, diet with 35% of calories from triheptanoin vs control diet (n=8 vs n=5)) was determined as 2.8 weeks. Besides, the “hind limb grip strength at 18 and 19.5 weeks of age vs control diet” value in the assay on hSOD1^G93A mice [1] (high copy number hSOD1^G93A mice, Bonferroni post-hoc p<0.05) was “higher hind limb grip strength; also recorded: significantly higher grip strength”. Also, in the assay on hSOD1^G93A mice [1] (high copy number hSOD1^G93A mice, triheptanoin diet vs control diet, p=0.024), the “area under the curve for grip strength over time, increase relative to control diet” value is reported as 38%. The “difference in mean hind limb grip strength vs control diet” value in the assay with wild-type mice is reported as “no observable difference”. Besides, the “time of onset of loss of balance delayed by” value in the assay on hSOD1^G93A mice [2] (hSOD1^G93A mice, triheptanoin vs control diet, p=0.0016) is given as 1.6 weeks. In addition, the “onset of balance loss on the rota-rod delayed by” value in the assay on hSOD1^G93A mice [2] (triheptanoin fed vs control fed SOD1^G93A mice, p=0.0016 (FIG. 3F legend)) is given as 13 days. Besides, in the assay with hSOD1^G93A mice [3] (hSOD1^G93A mice, triheptanoin feeding vs control, p=0.007), the “onset of body weight loss delayed by” value is 1.6 weeks. Further, the “onset of body weight loss delayed by” value in the assay on hSOD1^G93A mice [3] (triheptanoin fed (n=8) vs control fed (n=5) SOD1^G93A mice, p=0.0076 (FIG. 3H legend)) stood at 11 days. For the same compound, the effect on survival entry with hSOD1^G93A mice [4] (small study) is “did not alter survival”. For the same compound, in the assay on hSOD1^G93A mice [4] (triheptanoin n=7, mean±SEM, p=0.653 vs control), the “number of days taken to reach end-stage” value was determined as 174.9 ± 3.5 days. Moreover, in the assay with hSOD1^G93A mice [5] (triheptanoin diet from 35 days (n=4), control diet 37% loss), the “loss of motor neurons between L2 and L5 vs wild type” value was 21%. The “motor neuron numbers compared with wild type mice” value with hSOD1^G93A mice [5] (triheptanoin fed, n=4) is “not significantly different from wild type mice”. Moreover, in assay [6], the “protection from reduced expression of 2-oxo-glutarate dehydrogenase (Ogdh) mRNA” value was “not”, the “protection from reduced expression of methylmalonyl mutase (Mut) mRNA” value is given as “not”, the “protection from reduced expression of pyruvate dehydrogenase (Pdha1) mRNA” value is listed as “protected” and the “protection from reduced expression of succinate dehydrogenase (Sdha) mRNA” value is reported as “protected”.
